Patent US10174024B2, “5H-pyrido[3,2-B]indole compounds as anticancer agents” (BRISTOL-MYERS SQUIBB COMPANY, priority 2015, dated 2019)
Like-named read-outs stand apart in the source and are kept apart here.

Target: BRD4 (Homo sapiens, UniProt O60885)
Assay: Time Resolved Fluorescence Resonance Energy Transfer (TR-FRET) binding assay, FRET BRD4
Settings: one of the FRET assays described (BRD4 bromodomain construct not specified)

SMILES	IC50 (read-out: FRET BRD4 IC50)	IC50 (FRET BRD4 IC50 (nM))
[2H]C([2H])([2H])c1nnn(C)c1-c1cnc2c3cc(N4CCS(=O)(=O)[C@H](C)C4)ccc3n([C@H](c3ccccc3F)C3CCOCC3)c2c1 [Example 51, (2R)-4-{5-[(S)-(2-Fluorophenyl)(oxan-4-yl)methyl]-3-[4-(^2Ha)methyl-1-methyl-1H-1,2,3-triazol-5-yl]-5H-pyrido[3,2-b]indol-8-yl}-2-methyl-1λ^6,4-thiomorpholine-1,1-dione]	< 1 nM	
[2H]C([2H])([2H])c1nnn(C)c1-c1cnc2c3cc(N4CCS(=O)(=O)[C@@H](C)C4)ccc3n([C@H](c3ccccc3F)C3CCOCC3)c2c1 [Example 52, (2S)-4-{5-[(S)-(2-Fluorophenyl)(oxan-4-yl)methyl]-3-[4-(^2H3)methyl-1-methyl-1H-1,2,3-triazol-5-yl]-5H-pyrido[3,2-b]indol-8-yl}-2-methyl-11λ^6,4-thiomorpholine-1,1-dione]	< 1 nM	
[2H]C([2H])([2H])c1nnn(C)c1-c1cnc2c3ccc(C4(O)CCNCC4)c(F)c3n([C@H](c3ccccc3)C3CCOCC3)c2c1 [Example 53, 4-{6-Fluoro-3-[4-(^2H3)methyl-1-methyl-1H-1,2,3-triazol-5-yl]-5-[(S)-oxan-4-yl(phenyl)methyl]-5H-pyrido[3,2-b]indol-7-yl}piperidin-4-ol]	< 1 nM	
[2H]C([2H])([2H])c1nnn(C)c1-c1cnc2c3ccc(C4(O)CCN(C)CC4)c(F)c3n([C@H](c3ccccc3)C3CCOCC3)c2c1 [Example 54, 4-{6-Fluoro-3-[4-(^2H3)methyl-1-methyl-1H-1,2,3-triazol-5-yl]-5-[(S)-oxan-4-yl(phenyl)methyl]-5H-pyrido[3,2-b]indol-7-yl}-1-methylpiperidin-4-ol]		< 1 nM
[2H]C([2H])([2H])c1nnn(C)c1-c1cnc2c3ccc(C4(C)COC(=O)N4)c(F)c3n([C@H](c3ccccc3)C3CCOCC3)c2c1 (stereo partly drawn) [Example 55, 4-{6-Fluoro-3-[4-(^2H3)methyl-1-methyl-1H-1,2,3-triazol-5-yl]-5-[(S)-oxan-4-yl(phenyl)methyl]-5H-pyrido[3,2-b]indol-7-yl}-4-methyl-1,3-oxazolidin-2-one]	< 1 nM	
[2H]C([2H])([2H])c1nnn(C)c1-c1cnc2c3ccc(C4(C)COC(=O)N4)c(F)c3n([C@H](c3ccccc3)C3CCOCC3)c2c1 (stereo partly drawn) [Example 56, 4-{6-Fluoro-3-[4-(^2H3)methyl-1-methyl-1H-1,2,3-triazol-5-yl]-5-[(S)-oxan-4-yl(phenyl)methyl]-5H-pyrido[3,2-b]indol-7-yl}-4-methyl-1,3-oxazolidin-2-one]	< 1 nM	
[2H]C([2H])([2H])c1nnn(C)c1-c1cnc2c3ccc(N4CCCC4=O)c(F)c3n([C@H](c3ccccc3)C3CCOCC3)c2c1 [Example 57, 1-{6-Fluoro-3-[4-(^2H3)methyl-1-methyl-1H-1,2,3-triazol-5-yl]-5-[(S)-oxan-4-yl(phenyl)methyl]-5H-pyrido[3,2-b]indol-7-yl}pyrrolidin-2-one]	< 1 nM	
[2H]C([2H])([2H])c1nnn(C)c1-c1cnc2c3ccc(N4CCCS4(=O)=O)c(F)c3n([C@H](c3ccccc3)C3CCOCC3)c2c1 [Example 58, 2-{6-Fluoro-3-[4-(^2H3)methyl-1-methyl-1H-1,2,3-triazol-5-yl]-5-[(S)-oxan-4-yl(phenyl)methyl]-5H-pyrido[3,2-b]indol-7-yl}-1λ^6,2-thiazolidine-1,1-dione]	< 1 nM	
[2H]C([2H])([2H])c1nnn(C)c1-c1cnc2c3ccc(N4CCNC4=O)c(F)c3n([C@H](c3ccccc3)C3CCOCC3)c2c1 [Example 59, 1-{6-Fluoro-3-[4-(^2H3)methyl-1-methyl-1H-1,2,3-triazol-5-yl]-5-[(S)-oxan-4-yl(phenyl)methyl]-5H-pyrido[3,2-b]indol-7-yl}imidazolidin-2-one]	< 5 nM	
[2H]C([2H])([2H])c1nnn(C)c1-c1cnc2c3ccc(N4CCOC4=O)c(F)c3n([C@H](c3ccccc3)C3CCOCC3)c2c1 [Example 60, 3-{6-Fluoro-3-[4-(^2H3)methyl-1-methyl-1H-1,2,3-triazol-5-yl]-5-[(S)-oxan-4-yl(phenyl)methyl]-5H-pyrido[3,2-b]indol-7-yl}-1,3-oxazolidin-2-one]	< 1 nM	
[2H]C([2H])([2H])c1nnn(C)c1-c1cnc2c3ccc(N4CCCS4(=O)=O)c(F)c3n([C@H](c3ncccc3F)C3CCOCC3)c2c1 [Example 61, 2-{6-Fluoro-5-[(S)-(3-fluoropyridin-2-yl)(oxan-4-yl)methyl]-3-[4-(^2H3)methyl-1-methyl-1H-1,2,3-triazol-5-yl]-5H-pyrido[3,2-b]indol-7-yl}-1λ^6,2-thiazolidine-1,1-dione]	< 5 nM	
[2H]C([2H])([2H])c1nnn(C)c1-c1cnc2c3ccc(C4(O)CCOCC4)c(F)c3n([C@H](c3ccccc3)C3CCOCC3)c2c1 [Example 62, 4-{6-Fluoro-3-[4-(^2H3)methyl-1-methyl-1H-1,2,3-triazol-5-yl]-5-[(S)-oxan-4-yl(phenyl)methyl]-5H-pyrido[3,2-b]indol-7-yl}oxan-4-ol]	< 1 nM	
[2H]C([2H])([2H])c1nnn(C)c1-c1cnc2c3ccc(C4(O)CCOC4)c(F)c3n([C@H](c3ccccc3)C3CCOCC3)c2c1 (stereo partly drawn) [Example 63, 3-{6-Fluoro-3-[4-(^2H3)methyl-1-methyl-1H-1,2,3-triazol-5-yl]-5-[(S)-oxan-4-yl(phenyl)methyl]-5H-pyrido[3,2-b]indol-7-yl}oxolan-3-ol]	< 1 nM	
[2H]C([2H])([2H])c1nnn(C)c1-c1cnc2c3ccc(C4(O)CCOC4)c(F)c3n([C@H](c3ccccc3)C3CCOCC3)c2c1 (stereo partly drawn) [Example 64, 3-{6-Fluoro-3-[4-(^2H3)methyl-1-methyl-1H-1,2,3-triazol-5-yl]-5-[(S)-oxan-4-yl(phenyl)methyl]-5H-pyrido[3,2-b]indol-7-yl}oxolan-3-ol]	< 1 nM	
[2H]C([2H])([2H])c1nnn(C)c1-c1cnc2c3ccc(N4CCC(F)(F)CC4)cc3n(C(c3ncccc3F)C3CCOCC3)c2c1 (centres unmarked) [Example 65, 2-{[7-(4,4-Difluoropiperidin-1-yl)-3-[4-(^2H3)methyl-1-methyl-1H-1,2,3-triazol-5-yl]-5H-pyrido[3,2-b]indol-5-yl](oxan-4-yl)methyl}-3-fluoropyridine]	< 1 nM	
[2H]C([2H])([2H])c1nnn(C)c1-c1cnc2c3ccc(N4CCC(F)(F)CC4)cc3n(C(c3ncccc3F)C3CCOCC3)c2c1 (centres unmarked) [Example 66, 2-{[7-(4,4-Difluoropiperidin-1-yl)-3-[4-(^2H3)methyl-1-methyl-1H-1,2,3-triazol-5-yl]-5H-pyrido[3,2-b]indol-5-yl](oxan-4-yl)methyl}-3-fluoropyridine]	< 5 nM	
[2H]C([2H])([2H])c1nnn(C)c1-c1cnc2c3ccc(N4CCS(=O)(=O)CC4)cc3n(C(c3ncccc3F)C3CCOCC3)c2c1 (centres unmarked) [Example 67, 4-{5-[(3-Fluoropyridin-2-yl)(oxan-4-yl)methyl]-3-[4-(^2H3)methyl-1-methyl-1H-1,2,3-triazol-5-yl]-5H-pyrido[3,2-b]indol-7-yl}-1λ^6,4-thiomorpholine-1,1-dione]	< 5 nM	
[2H]C([2H])([2H])c1nnn(C)c1-c1cnc2c3ccc(N4CCC(S(C)(=O)=O)CC4)cc3n(C(c3ncccc3F)C3CCOCC3)c2c1 (centres unmarked) [Example 69, 3-Fluoro-2-{[7-(4-methanesulfonylpiperidin-1-yl)-3-[4-(^2H3)methyl-1-methyl-1H-1,2,3-triazol-5-yl]-5H-pyrido[3,2-b]indol-5-yl](oxan-4-yl)methyl}pyridine]	< 1 nM	
[2H]C([2H])([2H])c1nnn(C)c1-c1cnc2c3ccc(N4CCC(S(C)(=O)=O)CC4)cc3n(C(c3ncccc3F)C3CCOCC3)c2c1 (centres unmarked) [Example 70, 3-Fluoro-2-{[7-(4-methanesulfonylpiperidin-1-yl)-3-[4-(^2H3)methyl-1-methyl-1H-1,2,3-triazol-5-yl]-5H-pyrido[3,2-b]indol-5-yl](oxan-4-yl)methyl}pyridine]	< 1 nM	
Cc1nnn(C)c1-c1cnc2c3ccc(N4CCC(F)(F)CC4)cc3n([C@H](c3ccccc3)C3CCOCC3)c2c1 [Example 71, 1-[3-(Dimethyl-1H-1,2,3-triazol-5-yl)-5-[(S)-oxan-4-yl(phenyl)methyl]-5H-pyrido[3,2-b]indol-7-yl]-4,4-difluoropiperidine]	< 1 nM	
Cc1nnn(C)c1-c1cnc2c3ccc(N4CCC(C(F)(F)F)CC4)cc3n([C@H](c3ccccc3)C3CCOCC3)c2c1 [Example 72, 1-[3-(Dimethyl-1H-1,2,3-triazol-5-yl)-5-[(S)-oxan-4-yl(phenyl)methyl]-5H-pyrido[3,2-b]indol-7-yl]-4-(trifluoromethyl)piperidine]	< 1 nM	
[2H]C([2H])([2H])c1nnn(C)c1-c1cnc2c3c(N4CCC(F)(F)CC4)ccc(S(C)(=O)=O)c3n(C(c3ccccc3)C3CCC(F)(F)CC3)c2c1 (centres unmarked) [Example 73, 1-{5-[(4,4-Difluorocyclohexyl)(phenyl)methyl]-6-methanesulfonyl-3-[4-(^2H3)methyl-1-methyl-1H-1,2,3-triazol-5-yl]-5H-pyrido[3,2-b]indol-9-yl}-4,4-difluoropiperidine]	< 1500 nM	
[2H]C([2H])([2H])c1nnn(C)c1-c1cnc2c3c(N4CCC(F)(F)CC4)ccc(S(C)(=O)=O)c3n(C(c3ccccc3)C3CCC(F)(F)CC3)c2c1 (centres unmarked) [Example 74, 1-{5-[(4,4-Difluorocyclohexyl)(phenyl)methyl]-6-methanesulfonyl-3-[4-(^2H3)methyl-1-methyl-1H-1,2,3-triazol-5-yl]-5H-pyrido[3,2-b]indol-9-yl}-4,4-difluoropiperidine]	< 1500 nM	
